Laboratory results reported in the kinase profiling compilation of Christmann-Franck et al. (2016).

What was measured:
Test in all cases: KINOMEscan competition binding
Details in all cases: compound 10.0 µM
FER (human) = FER (human) (UniProt P16591)
DDR2 (human) = DDR2 (human) (UniProt Q16832)
PAK4 (human) = PAK4 (human) (UniProt O96013)
MYLK3 (human) = MYLK3 (human) (UniProt Q32MK0)
TLK2 (human) = TLK2 (human) (UniProt Q86UE8)
PRKACA (human) = PRKACA (human) (UniProt P17612)
TNIK (human) = TNIK (human) (UniProt Q9UKE5)
FLT4 (human) = FLT4 (human) (UniProt P35916)
RIPK4 (human) = RIPK4 (human) (UniProt P57078)
YES1 (human) = YES1 (human) (UniProt P07947)
STK24 (human) = STK24 (human) (UniProt Q9Y6E0)
NTRK1 (human) = NTRK1 (human) (UniProt P04629)
ADCK3 (human) = ADCK3 (human) (UniProt Q8NI60)
LATS2 (human) = LATS2 (human) (UniProt Q9NRM7)
SRC (human) = SRC (human) (UniProt P12931)
PRKCH (human) = PRKCH (human) (UniProt P24723)
CDK8 (human) = CDK8 (human) (UniProt P49336)
PLK2 (human) = PLK2 (human) (UniProt Q9NYY3)
YSK4 (human) = YSK4 (human) (UniProt Q56UN5)
PLK1 (human) = PLK1 (human) (UniProt P53350)
CAMK2B (human) = CAMK2B (human) (UniProt Q13554)
TEC (human) = TEC (human) (UniProt P42680)
BRSK1 (human) = BRSK1 (human) (UniProt Q8TDC3)
STK3 (human) = STK3 (human) (UniProt Q13188)
PRKACB (human) = PRKACB (human) (UniProt P22694)
FGFR4 (human) = FGFR4 (human) (UniProt P22455)
MAPK11 (human) = MAPK11 (human) (UniProt Q15759)
TGFBR2 (human) = TGFBR2 (human) (UniProt P37173)
MUSK (human) = MUSK (human) (UniProt O15146)
AURKA (human) = AURKA (human) (UniProt O14965)
FGFR3 (human) = FGFR3 (human) (UniProt P22607)
CLK2 (human) = CLK2 (human) (UniProt P49760)
MYO3B (human) = MYO3B (human) (UniProt Q8WXR4)
MYO3A (human) = MYO3A (human) (UniProt Q8NEV4)
MAPK7 (human) = MAPK7 (human) (UniProt Q13164)
CDC2L2 (human) = CDC2L2 (human) (UniProt Q9UQ88)
CDK16 (human) = CDK16 (human) (UniProt Q00536)

STK3 (human), sequence (Q13188 whole entry, looked up): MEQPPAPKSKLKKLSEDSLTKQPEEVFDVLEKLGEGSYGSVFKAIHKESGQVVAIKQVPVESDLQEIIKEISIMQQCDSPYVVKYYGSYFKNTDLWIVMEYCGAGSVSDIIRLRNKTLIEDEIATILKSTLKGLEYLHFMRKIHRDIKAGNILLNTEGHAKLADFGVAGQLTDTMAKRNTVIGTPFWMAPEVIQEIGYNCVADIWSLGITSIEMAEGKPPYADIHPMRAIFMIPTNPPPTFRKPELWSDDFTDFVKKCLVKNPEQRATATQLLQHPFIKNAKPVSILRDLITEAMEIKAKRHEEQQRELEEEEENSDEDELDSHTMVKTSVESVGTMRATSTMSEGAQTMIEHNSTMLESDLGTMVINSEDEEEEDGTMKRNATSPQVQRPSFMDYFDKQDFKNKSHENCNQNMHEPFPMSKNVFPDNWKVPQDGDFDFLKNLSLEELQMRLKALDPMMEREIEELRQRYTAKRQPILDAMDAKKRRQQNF
LATS2 (human), sequence (Q9NRM7 whole entry, looked up): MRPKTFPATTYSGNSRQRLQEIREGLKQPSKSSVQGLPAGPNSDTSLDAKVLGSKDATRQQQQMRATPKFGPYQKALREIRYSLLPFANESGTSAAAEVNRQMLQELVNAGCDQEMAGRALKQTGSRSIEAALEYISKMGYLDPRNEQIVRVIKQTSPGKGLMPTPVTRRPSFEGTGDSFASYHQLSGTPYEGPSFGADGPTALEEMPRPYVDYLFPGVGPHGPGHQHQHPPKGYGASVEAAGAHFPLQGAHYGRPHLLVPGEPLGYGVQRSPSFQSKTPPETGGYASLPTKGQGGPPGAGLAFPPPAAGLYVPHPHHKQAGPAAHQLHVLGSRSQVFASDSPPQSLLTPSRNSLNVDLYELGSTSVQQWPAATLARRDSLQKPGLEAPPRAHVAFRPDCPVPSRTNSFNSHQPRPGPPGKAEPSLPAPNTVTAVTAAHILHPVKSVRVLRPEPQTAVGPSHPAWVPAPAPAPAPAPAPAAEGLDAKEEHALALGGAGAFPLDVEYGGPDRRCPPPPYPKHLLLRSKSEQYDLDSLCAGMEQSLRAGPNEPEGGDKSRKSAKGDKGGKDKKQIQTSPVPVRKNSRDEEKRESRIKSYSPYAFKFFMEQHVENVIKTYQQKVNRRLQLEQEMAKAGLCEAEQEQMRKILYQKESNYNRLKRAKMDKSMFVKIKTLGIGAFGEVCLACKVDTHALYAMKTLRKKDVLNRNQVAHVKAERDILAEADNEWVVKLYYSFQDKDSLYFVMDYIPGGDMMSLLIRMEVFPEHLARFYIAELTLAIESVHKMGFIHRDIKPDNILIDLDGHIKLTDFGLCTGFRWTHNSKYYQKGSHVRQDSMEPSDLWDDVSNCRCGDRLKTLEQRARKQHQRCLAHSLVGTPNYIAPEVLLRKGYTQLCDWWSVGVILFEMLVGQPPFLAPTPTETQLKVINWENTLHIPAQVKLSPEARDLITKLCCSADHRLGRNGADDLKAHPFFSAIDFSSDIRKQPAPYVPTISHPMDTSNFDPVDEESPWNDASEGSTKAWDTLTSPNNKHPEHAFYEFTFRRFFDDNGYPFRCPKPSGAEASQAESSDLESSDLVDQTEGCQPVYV
BRSK1 (human), sequence (Q8TDC3 whole entry, looked up): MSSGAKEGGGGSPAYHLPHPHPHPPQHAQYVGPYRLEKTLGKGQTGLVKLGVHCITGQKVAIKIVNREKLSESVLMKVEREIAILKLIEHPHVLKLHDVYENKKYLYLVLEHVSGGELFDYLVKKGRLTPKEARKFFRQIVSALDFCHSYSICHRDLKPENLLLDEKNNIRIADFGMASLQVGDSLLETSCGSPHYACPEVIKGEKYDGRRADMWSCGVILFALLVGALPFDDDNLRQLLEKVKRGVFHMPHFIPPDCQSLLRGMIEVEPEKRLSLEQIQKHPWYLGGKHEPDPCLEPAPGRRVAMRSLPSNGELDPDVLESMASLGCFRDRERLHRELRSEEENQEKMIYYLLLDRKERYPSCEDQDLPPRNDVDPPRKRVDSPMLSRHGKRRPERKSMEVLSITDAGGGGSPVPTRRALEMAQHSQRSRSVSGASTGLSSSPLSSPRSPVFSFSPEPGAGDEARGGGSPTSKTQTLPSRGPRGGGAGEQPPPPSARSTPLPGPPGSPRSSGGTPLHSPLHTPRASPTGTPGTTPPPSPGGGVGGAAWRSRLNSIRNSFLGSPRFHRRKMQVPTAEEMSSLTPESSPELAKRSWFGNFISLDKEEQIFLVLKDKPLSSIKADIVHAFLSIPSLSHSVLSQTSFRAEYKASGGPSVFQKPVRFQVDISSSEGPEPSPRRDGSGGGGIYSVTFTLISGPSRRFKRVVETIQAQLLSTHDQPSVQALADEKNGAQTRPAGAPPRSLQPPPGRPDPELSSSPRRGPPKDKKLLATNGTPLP
AURKA (human), sequence (O14965 whole entry, looked up): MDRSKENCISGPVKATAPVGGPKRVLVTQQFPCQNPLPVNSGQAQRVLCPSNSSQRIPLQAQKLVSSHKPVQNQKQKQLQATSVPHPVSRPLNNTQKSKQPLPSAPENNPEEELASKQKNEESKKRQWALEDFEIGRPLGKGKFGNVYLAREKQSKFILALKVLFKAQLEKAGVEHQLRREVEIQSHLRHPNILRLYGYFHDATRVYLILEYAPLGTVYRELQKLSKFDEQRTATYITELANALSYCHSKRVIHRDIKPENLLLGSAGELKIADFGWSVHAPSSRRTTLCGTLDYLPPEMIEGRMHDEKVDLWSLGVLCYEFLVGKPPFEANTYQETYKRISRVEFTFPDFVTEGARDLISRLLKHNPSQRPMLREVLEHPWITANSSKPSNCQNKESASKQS
MAPK7 (human), sequence (Q13164 whole entry, looked up): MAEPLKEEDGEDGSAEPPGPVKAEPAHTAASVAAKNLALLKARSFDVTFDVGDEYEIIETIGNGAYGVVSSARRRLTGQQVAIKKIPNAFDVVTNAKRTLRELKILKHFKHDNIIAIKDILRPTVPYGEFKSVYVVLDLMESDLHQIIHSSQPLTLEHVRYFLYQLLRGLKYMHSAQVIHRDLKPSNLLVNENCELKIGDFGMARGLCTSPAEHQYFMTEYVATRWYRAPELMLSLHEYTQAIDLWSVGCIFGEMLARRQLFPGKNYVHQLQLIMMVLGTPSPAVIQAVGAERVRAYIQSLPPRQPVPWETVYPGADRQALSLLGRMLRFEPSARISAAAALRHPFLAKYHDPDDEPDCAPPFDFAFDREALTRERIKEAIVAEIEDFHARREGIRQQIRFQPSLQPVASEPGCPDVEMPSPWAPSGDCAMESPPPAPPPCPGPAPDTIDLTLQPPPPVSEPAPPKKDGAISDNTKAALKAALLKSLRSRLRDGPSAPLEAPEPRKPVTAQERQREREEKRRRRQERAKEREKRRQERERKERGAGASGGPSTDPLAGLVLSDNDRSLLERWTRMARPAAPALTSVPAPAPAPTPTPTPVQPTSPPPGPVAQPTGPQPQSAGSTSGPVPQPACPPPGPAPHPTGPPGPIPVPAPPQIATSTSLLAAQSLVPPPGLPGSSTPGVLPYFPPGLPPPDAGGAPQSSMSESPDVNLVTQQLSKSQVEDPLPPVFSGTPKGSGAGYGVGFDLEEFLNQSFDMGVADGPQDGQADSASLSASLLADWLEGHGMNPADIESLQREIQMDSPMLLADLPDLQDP
FGFR3 (human), sequence (P22607 whole entry, looked up): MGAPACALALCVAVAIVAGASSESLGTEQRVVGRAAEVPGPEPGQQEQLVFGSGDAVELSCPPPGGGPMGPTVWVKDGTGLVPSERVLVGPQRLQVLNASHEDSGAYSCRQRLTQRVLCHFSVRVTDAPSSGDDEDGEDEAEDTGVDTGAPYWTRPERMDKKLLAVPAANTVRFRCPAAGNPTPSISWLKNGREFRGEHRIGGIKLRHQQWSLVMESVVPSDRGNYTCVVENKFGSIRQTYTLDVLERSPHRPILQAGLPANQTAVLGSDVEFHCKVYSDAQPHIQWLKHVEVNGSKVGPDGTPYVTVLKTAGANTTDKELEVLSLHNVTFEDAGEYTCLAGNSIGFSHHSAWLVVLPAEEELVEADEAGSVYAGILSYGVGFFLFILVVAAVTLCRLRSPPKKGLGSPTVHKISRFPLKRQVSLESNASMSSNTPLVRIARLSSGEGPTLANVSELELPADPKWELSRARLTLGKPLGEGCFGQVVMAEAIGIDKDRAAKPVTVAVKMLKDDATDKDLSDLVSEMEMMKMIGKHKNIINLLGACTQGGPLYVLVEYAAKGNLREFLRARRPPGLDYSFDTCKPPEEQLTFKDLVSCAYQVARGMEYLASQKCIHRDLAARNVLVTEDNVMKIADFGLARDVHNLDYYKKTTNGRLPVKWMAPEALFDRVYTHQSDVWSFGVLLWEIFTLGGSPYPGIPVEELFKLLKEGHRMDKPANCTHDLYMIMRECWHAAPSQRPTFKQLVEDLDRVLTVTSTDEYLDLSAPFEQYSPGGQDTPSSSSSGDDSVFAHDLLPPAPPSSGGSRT
CAMK2B (human), sequence (Q13554 whole entry, looked up): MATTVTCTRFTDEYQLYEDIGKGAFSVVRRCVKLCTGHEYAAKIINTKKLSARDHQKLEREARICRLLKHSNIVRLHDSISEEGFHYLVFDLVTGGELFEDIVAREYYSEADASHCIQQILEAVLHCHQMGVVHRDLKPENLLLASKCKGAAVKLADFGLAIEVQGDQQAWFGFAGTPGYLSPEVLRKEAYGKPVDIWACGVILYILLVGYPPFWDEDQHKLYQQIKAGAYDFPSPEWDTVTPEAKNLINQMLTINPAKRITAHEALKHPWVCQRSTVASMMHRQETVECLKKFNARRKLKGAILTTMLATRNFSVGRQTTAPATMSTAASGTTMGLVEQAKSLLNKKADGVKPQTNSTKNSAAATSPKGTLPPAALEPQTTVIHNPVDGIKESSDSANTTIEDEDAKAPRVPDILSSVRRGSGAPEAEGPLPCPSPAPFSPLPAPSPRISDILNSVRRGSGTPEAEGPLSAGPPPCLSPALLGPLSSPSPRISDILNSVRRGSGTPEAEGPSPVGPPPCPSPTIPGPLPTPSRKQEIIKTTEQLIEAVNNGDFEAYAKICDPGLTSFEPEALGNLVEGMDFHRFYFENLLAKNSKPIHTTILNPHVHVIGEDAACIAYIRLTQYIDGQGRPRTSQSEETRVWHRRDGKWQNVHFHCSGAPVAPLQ

COc1cc(N2CCN(C)CC2)ccc1Nc1ncc2c(n1)N(C)c1ccccc1C(=O)N2C
kinase still bound, per cent of control (FER (human)): 32%
kinase still bound, per cent of control (DDR2 (human)): 100%
kinase still bound, per cent of control (PAK4 (human)): 100%
kinase still bound, per cent of control (MYLK3 (human)): 100%
kinase still bound, per cent of control (TLK2 (human)): 100%
kinase still bound, per cent of control (PRKACA (human)): 100%
kinase still bound, per cent of control (TNIK (human)): 100%
kinase still bound, per cent of control (FLT4 (human)): 100%
kinase still bound, per cent of control (RIPK4 (human)): 100%
kinase still bound, per cent of control (YES1 (human)): 100%
kinase still bound, per cent of control (STK24 (human)): 100%
kinase still bound, per cent of control (NTRK1 (human)): 100%
kinase still bound, per cent of control (ADCK3 (human)): 100%
kinase still bound, per cent of control (LATS2 (human)): 100%
kinase still bound, per cent of control (SRC (human)): 100%
kinase still bound, per cent of control (PRKCH (human)): 100%
kinase still bound, per cent of control (CDK8 (human)): 100%
kinase still bound, per cent of control (PLK2 (human)): 100%
kinase still bound, per cent of control (YSK4 (human)): 100%
kinase still bound, per cent of control (PLK1 (human)): 9.8%
kinase still bound, per cent of control (CAMK2B (human)): 100%
kinase still bound, per cent of control (TEC (human)): 100%
kinase still bound, per cent of control (BRSK1 (human)): 100%
kinase still bound, per cent of control (STK3 (human)): 100%
kinase still bound, per cent of control (PRKACB (human)): 100%
kinase still bound, per cent of control (FGFR4 (human)): 5.6%
kinase still bound, per cent of control (MAPK11 (human)): 100%
kinase still bound, per cent of control (TGFBR2 (human)): 100%
kinase still bound, per cent of control (MUSK (human)): 100%
kinase still bound, per cent of control (AURKA (human)): 100%
kinase still bound, per cent of control (FGFR3 (human)): 100%
kinase still bound, per cent of control (CLK2 (human)): 100%
kinase still bound, per cent of control (MYO3B (human)): 100%
kinase still bound, per cent of control (MYO3A (human)): 100%
kinase still bound, per cent of control (MAPK7 (human)): 0%
kinase still bound, per cent of control (CDC2L2 (human)): 100%
kinase still bound, per cent of control (CDK16 (human)): 100%

C=CC(=O)Nc1ccc(CN(C(=O)Nc2c(Cl)c(OC)cc(OC)c2Cl)c2cc(Nc3ccc(N4CCN(C)CC4)cc3)ncn2)cc1
kinase still bound, per cent of control (FER (human)): 100%
kinase still bound, per cent of control (DDR2 (human)): 100%
kinase still bound, per cent of control (PAK4 (human)): 100%
kinase still bound, per cent of control (MYLK3 (human)): 100%
kinase still bound, per cent of control (TLK2 (human)): 100%
kinase still bound, per cent of control (PRKACA (human)): 100%
kinase still bound, per cent of control (TNIK (human)): 100%
kinase still bound, per cent of control (FLT4 (human)): 0.1%
kinase still bound, per cent of control (RIPK4 (human)): 100%
kinase still bound, per cent of control (YES1 (human)): 5.2%
kinase still bound, per cent of control (STK24 (human)): 18%
kinase still bound, per cent of control (NTRK1 (human)): 100%
kinase still bound, per cent of control (ADCK3 (human)): 100%
kinase still bound, per cent of control (LATS2 (human)): 100%
kinase still bound, per cent of control (SRC (human)): 6.6%
kinase still bound, per cent of control (PRKCH (human)): 100%
kinase still bound, per cent of control (CDK8 (human)): 100%
kinase still bound, per cent of control (PLK1 (human)): 100%
kinase still bound, per cent of control (CAMK2B (human)): 100%
kinase still bound, per cent of control (TEC (human)): 7.2%
kinase still bound, per cent of control (BRSK1 (human)): 100%
kinase still bound, per cent of control (STK3 (human)): 100%
kinase still bound, per cent of control (PRKACB (human)): 100%
kinase still bound, per cent of control (FGFR4 (human)): 0.1%
kinase still bound, per cent of control (MAPK11 (human)): 100%
kinase still bound, per cent of control (TGFBR2 (human)): 100%
kinase still bound, per cent of control (MUSK (human)): 6.2%
kinase still bound, per cent of control (AURKA (human)): 100%
kinase still bound, per cent of control (FGFR3 (human)): 4.5%
kinase still bound, per cent of control (CLK2 (human)): 100%
kinase still bound, per cent of control (MYO3B (human)): 100%
kinase still bound, per cent of control (MYO3A (human)): 100%
kinase still bound, per cent of control (MAPK7 (human)): 9.7%
kinase still bound, per cent of control (CDC2L2 (human)): 100%
kinase still bound, per cent of control (CDK16 (human)): 100%

CS(=O)(=O)N1CCN(Cc2cc3nc(-c4cccc5[nH]ncc45)nc(N4CCOCC4)c3s2)CC1
kinase still bound, per cent of control (FER (human)): 100%
kinase still bound, per cent of control (DDR2 (human)): 100%
kinase still bound, per cent of control (PAK4 (human)): 100%
kinase still bound, per cent of control (MYLK3 (human)): 100%
kinase still bound, per cent of control (TLK2 (human)): 100%
kinase still bound, per cent of control (PRKACA (human)): 100%
kinase still bound, per cent of control (TNIK (human)): 100%
kinase still bound, per cent of control (FLT4 (human)): 100%
kinase still bound, per cent of control (RIPK4 (human)): 100%
kinase still bound, per cent of control (YES1 (human)): 100%
kinase still bound, per cent of control (STK24 (human)): 100%
kinase still bound, per cent of control (NTRK1 (human)): 100%
kinase still bound, per cent of control (ADCK3 (human)): 100%
kinase still bound, per cent of control (LATS2 (human)): 100%
kinase still bound, per cent of control (SRC (human)): 100%
kinase still bound, per cent of control (PRKCH (human)): 100%
kinase still bound, per cent of control (CDK8 (human)): 100%
kinase still bound, per cent of control (PLK2 (human)): 100%
kinase still bound, per cent of control (YSK4 (human)): 100%
kinase still bound, per cent of control (PLK1 (human)): 100%
kinase still bound, per cent of control (CAMK2B (human)): 100%
kinase still bound, per cent of control (TEC (human)): 100%
kinase still bound, per cent of control (BRSK1 (human)): 100%
kinase still bound, per cent of control (STK3 (human)): 100%
kinase still bound, per cent of control (PRKACB (human)): 100%
kinase still bound, per cent of control (FGFR4 (human)): 100%
kinase still bound, per cent of control (MAPK11 (human)): 100%
kinase still bound, per cent of control (TGFBR2 (human)): 100%
kinase still bound, per cent of control (MUSK (human)): 100%
kinase still bound, per cent of control (AURKA (human)): 100%
kinase still bound, per cent of control (FGFR3 (human)): 100%
kinase still bound, per cent of control (MYO3B (human)): 100%
kinase still bound, per cent of control (MYO3A (human)): 100%
kinase still bound, per cent of control (MAPK7 (human)): 100%
kinase still bound, per cent of control (CDC2L2 (human)): 100%
